From PMC3832412 (PLoS ONE, 2013)
“And” between values parts separate entries of the source, which are not always exact repeats. Identical values can stand only once. Like-named read-outs stand apart in the source and are kept apart here.

Columns and labels:
[1] = system: NMDAR in primary rat hippocampal neurons; assay type: cell-based, rat (Sprague-Dawley)
GluN2A subunit = conditions: ref [41], cited from earlier work

SMILES | inhibition of iCa^2+ influx [1] | NMDAR subunit specificity (GluN2A subunit; 60 nM) | NMDAR subunit specificity (GluN2A subunit; 400 nM)
C[C@H](NC(c1cccc2[nH]c(=O)c(=O)[nH]c12)P(=O)(O)O)c1ccc(Br)cc1 (stereo partly shown) [NVP-AAM007] | 46% and 64% | specifically inhibits the GluN2A subunit | non-subunit specific
CC(C(O)c1ccc(O)cc1)N1CCC(Cc2ccccc2)CC1 (stereo not shown) [ifenprodil] | 64% | – | –
